Measurements from patent publication US8937064B2, “Pyrazolo[1,5-a]pyrimidines useful as JAK2 inhibitors” (Vertex Pharmaceuticals Incorporated, priority 2007, dated 2015).

Columns and labels:
JAK3 = biological target: T1, JAK3 (Homo sapiens, UniProt P52333); test: JAK3 Inhibition Assay; type: biochemical; details: 1 nM JAK3, 1 μM poly(Glu)4Tyr, 5 μM ATP, 25° C., 33P incorporation
T1 sequence (P52333 1-1124): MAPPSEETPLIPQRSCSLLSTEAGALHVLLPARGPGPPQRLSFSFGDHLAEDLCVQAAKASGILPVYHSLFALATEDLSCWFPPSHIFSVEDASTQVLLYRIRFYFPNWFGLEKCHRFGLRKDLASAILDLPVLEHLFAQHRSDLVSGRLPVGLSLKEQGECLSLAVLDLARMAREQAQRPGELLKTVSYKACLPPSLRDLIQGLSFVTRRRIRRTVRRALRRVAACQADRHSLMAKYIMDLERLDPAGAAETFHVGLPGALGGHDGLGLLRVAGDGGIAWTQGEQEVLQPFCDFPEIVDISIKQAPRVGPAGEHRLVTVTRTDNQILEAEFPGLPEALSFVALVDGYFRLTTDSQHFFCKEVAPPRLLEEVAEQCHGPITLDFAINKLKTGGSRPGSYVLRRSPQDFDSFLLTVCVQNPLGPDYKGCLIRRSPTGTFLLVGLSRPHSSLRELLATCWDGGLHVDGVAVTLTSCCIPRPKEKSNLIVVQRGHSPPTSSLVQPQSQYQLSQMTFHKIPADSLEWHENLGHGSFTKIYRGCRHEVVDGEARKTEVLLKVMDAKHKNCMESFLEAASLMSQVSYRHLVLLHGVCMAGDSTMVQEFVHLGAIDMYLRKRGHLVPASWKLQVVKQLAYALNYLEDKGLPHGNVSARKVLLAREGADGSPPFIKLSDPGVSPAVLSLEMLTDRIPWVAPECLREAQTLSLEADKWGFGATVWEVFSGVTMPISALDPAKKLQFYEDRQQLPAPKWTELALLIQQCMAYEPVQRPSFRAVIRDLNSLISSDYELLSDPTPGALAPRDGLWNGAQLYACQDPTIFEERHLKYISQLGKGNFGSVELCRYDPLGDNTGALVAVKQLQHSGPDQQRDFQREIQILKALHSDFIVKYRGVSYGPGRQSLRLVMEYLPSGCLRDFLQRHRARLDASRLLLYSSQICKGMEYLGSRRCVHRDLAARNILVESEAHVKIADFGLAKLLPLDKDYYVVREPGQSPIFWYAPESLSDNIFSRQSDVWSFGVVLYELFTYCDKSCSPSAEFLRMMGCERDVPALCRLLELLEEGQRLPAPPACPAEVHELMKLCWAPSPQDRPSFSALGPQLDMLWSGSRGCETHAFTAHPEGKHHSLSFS

JAK-2 enzyme = JAK-2 enzyme (Homo sapiens, UniProt O60674); test: JAK2 Inhibition Assay
JAK-2 enzyme, sequence (O60674 whole entry): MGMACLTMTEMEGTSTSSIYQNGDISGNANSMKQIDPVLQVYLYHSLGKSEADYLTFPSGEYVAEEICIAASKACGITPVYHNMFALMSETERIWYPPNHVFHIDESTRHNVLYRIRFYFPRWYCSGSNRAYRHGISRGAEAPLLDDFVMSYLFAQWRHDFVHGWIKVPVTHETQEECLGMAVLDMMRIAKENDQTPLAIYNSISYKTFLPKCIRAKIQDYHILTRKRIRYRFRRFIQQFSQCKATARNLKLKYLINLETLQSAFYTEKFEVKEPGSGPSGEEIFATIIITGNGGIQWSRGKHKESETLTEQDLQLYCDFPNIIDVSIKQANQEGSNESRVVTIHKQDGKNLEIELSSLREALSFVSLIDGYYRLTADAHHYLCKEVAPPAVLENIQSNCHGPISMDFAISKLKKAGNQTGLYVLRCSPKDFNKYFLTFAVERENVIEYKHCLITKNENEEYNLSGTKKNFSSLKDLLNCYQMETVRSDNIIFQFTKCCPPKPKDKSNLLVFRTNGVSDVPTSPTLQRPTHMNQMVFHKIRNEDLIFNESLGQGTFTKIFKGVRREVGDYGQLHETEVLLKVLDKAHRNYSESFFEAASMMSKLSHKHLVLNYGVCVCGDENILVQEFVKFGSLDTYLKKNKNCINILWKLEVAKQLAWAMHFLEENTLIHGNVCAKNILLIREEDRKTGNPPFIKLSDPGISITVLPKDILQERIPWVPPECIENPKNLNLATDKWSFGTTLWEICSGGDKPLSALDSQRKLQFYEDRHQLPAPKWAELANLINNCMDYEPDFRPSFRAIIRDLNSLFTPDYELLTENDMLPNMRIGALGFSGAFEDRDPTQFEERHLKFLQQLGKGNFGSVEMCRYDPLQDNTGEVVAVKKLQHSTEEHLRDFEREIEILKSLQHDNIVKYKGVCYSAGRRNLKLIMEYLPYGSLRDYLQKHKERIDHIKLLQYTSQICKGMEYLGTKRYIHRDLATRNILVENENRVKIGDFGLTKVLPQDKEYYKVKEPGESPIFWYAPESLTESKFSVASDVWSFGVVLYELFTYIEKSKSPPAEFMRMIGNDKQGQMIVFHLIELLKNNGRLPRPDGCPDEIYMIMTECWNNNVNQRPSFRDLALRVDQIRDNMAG
Experimental: Reactions were carried out in a kinase buffer containing 100 mM HEPES (pH 7.4), 1 mM DTT, 10 mM MgCl2, 25 mM NaCl, and 0.01% BSA. Substrate concentrations in the assay were 5 μM ATP (200 uCi/μmole ATP) and 1 μM poly(Glu)4Tyr. Reactions were carried out at 25° C. and 1 nM JAK3.
To each well of a 96 well polycarbonate plate was added 1.5 μl of a candidate JAK3 inhibitor along with 50 μl of kinase buffer containing 2 μM poly(Glu)4Tyr and 10 μM ATP. This was then mixed and 50 μl of kinase buffer containing 2 nM JAK3 enzyme was added to start the reaction. After 20 minutes at room temperature (25° C.), the reaction was stopped with 50 μl of 20% trichloroacetic acid (TCA) that also contained 0.4 mM ATP. The entire contents of each well were then transferred to a 96 well glass fiber filter plate using a TomTek Cell Harvester. After washing, 60 μl of scintillation fluid was added and ^33P incorporation detected on a Perkin Elmer TopCount.

| Compound | Ki (JAK3) | Ki (JAK-2 enzyme) |
| --- | --- | --- |
| C[C@H](Nc1cc(-c2c(N)nn3cccnc23)ncn1)c1ccc(Cl)cc1F [Compound 81] | 10 to 100 nM | < 10 nM |
| Nc1nn2cccnc2c1-c1cc(OCc2ccc(C(F)(F)F)cc2)ncn1 [Compound 72] | > 5000 nM | 100 to 500 nM |
| CSc1nc(N[C@@H](C)c2ccc(F)cc2)cc(-c2c(N)nn3cccnc23)n1 [Compound 92] | 10 to 100 nM | < 10 nM |
| C[C@H](Nc1cc(-c2c(N)nn3cccnc23)nc(S(C)(=O)=O)n1)c1ccc(F)cc1 [Compound 100] | < 10 nM | < 10 nM |
| C=CCCOc1nc(N[C@@H](C)c2ccc(F)cc2)cc(-c2c(N)nn3cccnc23)n1 [Compound 170] | 10 to 100 nM | < 10 nM |
| Nc1nn2cccnc2c1-c1cc(N2CCc3ccccc3C2)ncn1 [Compound 42] | 100 to 500 nM | 10 to 100 nM |
| COCC(=O)Nc1nc(N[C@@H](C)c2ccc(F)cc2F)cc(-c2cnn3cccnc23)n1 [Compound 187] | 10 to 100 nM | < 10 nM |
| Nc1nn2cccnc2c1-c1cc(N[C@@H](CCO)c2ccccc2)nc(N2CCOCC2)n1 [Compound 102] | 100 to 500 nM | 10 to 100 nM |
| Nc1nn2cccnc2c1-c1cc(NCc2ccccc2OC(F)(F)F)ncn1 [Compound 14] | 10 to 100 nM | < 10 nM |
| Nc1nn2cccnc2c1-c1cc(NC2(c3ccc(F)cc3)CC2)ncn1 [Compound 90] | 10 to 100 nM | < 10 nM |
| C[C@H](Nc1cc(-c2cnn3cccnc23)nc(OCC2CCCN2)n1)c1ccc(F)cc1F (stereo partly drawn) [Compound 216] | 100 to 500 nM | < 10 nM |
| CCC[C@H](Nc1cc(-c2c(N)nn3cccnc23)nc(S(C)(=O)=O)n1)c1ccc(F)cc1F [Compound 112] | 10 to 100 nM | < 10 nM |
| Nc1nn2cccnc2c1-c1cc(NCc2ccsc2Br)ncn1 [Compound 36] | 10 to 100 nM | < 10 nM |
| CCC(Oc1cc(-c2c(N)nn3cccnc23)ncn1)c1ccccc1 (stereo not drawn) [Compound 65] | 10 to 100 nM | < 10 nM |
| CCC#CCOc1nc(N[C@@H](C)c2ccc(F)cc2)cc(-c2c(N)nn3cccnc23)n1 [Compound 162] | 100 to 500 nM | 10 to 100 nM |
| CCC[C@H](Nc1cc(-c2c(N)nn3cccnc23)nc(N2CCOCC2)n1)c1ccc(F)cc1 [Compound 103] | 100 to 500 nM | 10 to 100 nM |
| C[C@@H](Oc1cc(-c2c(N)nn3cccnc23)ncn1)c1ccccc1 [Compound 67] | 100 to 500 nM | 10 to 100 nM |
| CCC[C@@H](Nc1cc(-c2cnn3cccnc23)ncn1)c1ccc(F)cc1F [Compound 123] | 100 to 500 nM | 10 to 100 nM |
| C[C@H](Nc1cc(-c2c(N)nn3cccnc23)nc(N2CC[C@@H](F)C2)n1)c1ccc(F)cc1 [Compound 189] | 100 to 500 nM | < 10 nM |
| C[C@H](Nc1cc(-c2c(N)nn3cccnc23)nc(O)n1)c1ccc(F)cc1F [Compound 131] | 10 to 100 nM | < 10 nM |
| C[C@H](Nc1cc(-c2cnn3cccnc23)nc(OCC2CCOC2)n1)c1ccc(F)cc1F (stereo partly drawn) [Compound 222] | 10 to 100 nM | < 10 nM |
| CC/C=C\COc1nc(N[C@@H](C)c2ccc(F)cc2)cc(-c2c(N)nn3cccnc23)n1 [Compound 165] | 100 to 500 nM | 10 to 100 nM |
| CCC[C@H](Nc1cc(-c2c(N)nn3cccnc23)ncn1)c1ccc(F)c(F)c1 [Compound 98] | 10 to 100 nM | < 10 nM |
| O=C(Nc1ccnc(-c2cnn3cccnc23)c1)c1ccc(F)cc1 [Compound 227] | 500 to 5000 nM | 100 to 500 nM |
| C=COCCCCOc1nc(N[C@@H](C)c2ccc(F)cc2)cc(-c2c(N)nn3cccnc23)n1 [Compound 174] | 100 to 500 nM | 10 to 100 nM |
| CCN(CC)CCOc1nc(N[C@@H](C)c2ccc(F)cc2)cc(-c2c(N)nn3cccnc23)n1 [Compound 99] | 10 to 100 nM | < 10 nM |
| CC(C)NCCOc1nc(N[C@@H](C)c2ccc(F)cc2F)cc(-c2cnn3cccnc23)n1 [Compound 207] | 10 to 100 nM | < 10 nM |

| Compound | Ki (JAK3) | Ki (JAK-2 enzyme) |
| --- | --- | --- |
| CC(C)Oc1nc(N[C@@H](C)c2ccc(F)cc2F)cc(-c2c(N)nn3cccnc23)n1 [Compound 129] | 100 to 500 nM | 10 to 100 nM |
| C[C@H](Nc1cc(-c2cnn3cccnc23)nc(OCC(C)(C)N(C)C)n1)c1ccc(F)cc1F [Compound 193] | 100 to 500 nM | < 10 nM |
| COc1ccccc1CNc1cc(-c2c(N)nn3cccnc23)ncn1 [Compound 5] | 10 to 100 nM | < 10 nM |
| CSCCCOc1nc(N[C@@H](C)c2ccc(F)cc2)cc(-c2c(N)nn3cccnc23)n1 [Compound 172] | 10 to 100 nM | < 10 nM |
| CCN(CC)C(=O)COc1nc(N[C@@H](C)c2ccc(F)cc2F)cc(-c2c(N)nn3cccnc23)n1 [Compound 127] | 100 to 500 nM | 10 to 100 nM |
| C[C@H](Nc1cc(-c2c(N)nn3cccnc23)nc(N2CC[C@H](F)C2)n1)c1ccc(F)cc1 [Compound 191] | 100 to 500 nM | 10 to 100 nM |
| C[C@H](Nc1cc(-c2c(N)nn3cccnc23)nc(OCC2CCCO2)n1)c1ccc(F)cc1F (stereo partly drawn) [Compound 139] | 10 to 100 nM | < 10 nM |
| C[C@H](Nc1ccnc(-c2cnn3cccnc23)n1)c1ccc(Cl)cc1 [Compound 226] | 500 to 5000 nM | 100 to 500 nM |
| C[C@H](Nc1cc(-c2c(N)nn3cccnc23)nc(O)n1)c1ccc(F)cc1 [Compound 161] | 10 to 100 nM | < 10 nM |
| C[C@H](Nc1cc(-c2c(N)nn3cccnc23)nc(OCC2CCOC2)n1)c1ccc(F)cc1 (stereo partly drawn) [Compound 164] | 10 to 100 nM | < 10 nM |
| C=CCCCOc1nc(N[C@@H](C)c2ccc(F)cc2)cc(-c2c(N)nn3cccnc23)n1 [Compound 182] | 100 to 500 nM | 10 to 100 nM |
| CC[C@@H](Nc1cc(-c2c(N)nn3cccnc23)ncn1)c1ccc(F)cc1F [Compound 88] | 10 to 100 nM | < 10 nM |
| C[C@H](Nc1cc(-c2c(N)nn3cccnc23)nc(OCC(F)(F)F)n1)c1ccc(F)cc1 [Compound 156] | 100 to 500 nM | < 10 nM |
| C[C@H](Nc1cc(-c2c(N)nn3ccc(C(F)(F)F)nc23)ncn1)c1ccc(F)cc1 [Compound 134] | 10 to 100 nM | 10 to 100 nM |
| C[C@H](Nc1cc(-c2cnn3cccnc23)ncn1)c1ccc(Cl)cc1 [Compound 144] | 100 to 500 nM | < 10 nM |
| CC(C#N)Oc1nc(N[C@@H](C)c2ccc(F)cc2F)cc(-c2cnn3cccnc23)n1 (stereo partly drawn) [Compound 201] | 10 to 100 nM | < 10 nM |
| CCC[C@H](Nc1cc(-c2cnn3cccnc23)ncn1)c1ccc(F)cc1F [Compound 122] | 10 to 100 nM | < 10 nM |
| CC(C)[C@H](Nc1cc(-c2c(N)nn3cccnc23)nc(N2CCOCC2)n1)c1ccc(F)cc1F [Compound 125] | 100 to 500 nM | 10 to 100 nM |
| C[C@H](Nc1cc(-c2c(N)nn3cccnc23)nc(NCCN2CCOCC2)n1)c1ccc(F)cc1 [Compound 124] | 10 to 100 nM | < 10 nM |
| C[C@H](Nc1cc(-c2cnn3cccnc23)nc(N)n1)c1ccc(F)cc1F [Compound 147] | 10 to 100 nM | < 10 nM |
| CCCOc1nc(N[C@@H](C)c2ccc(F)cc2)cc(-c2c(N)nn3cccnc23)n1 [Compound 153] | 10 to 100 nM | < 10 nM |
| C[C@H](Nc1cc(-c2c(N)nn3cccnc23)nc(OCC2CCOC2)n1)c1ccc(F)cc1F (stereo partly drawn) [Compound 130] | 10 to 100 nM | < 10 nM |
| CC(C)=CCOc1nc(N[C@@H](C)c2ccc(F)cc2)cc(-c2c(N)nn3cccnc23)n1 [Compound 152] | 10 to 100 nM | 10 to 100 nM |
| COC(C)(C)CCOc1nc(N[C@@H](C)c2ccc(F)cc2F)cc(-c2c(N)nn3cccnc23)n1 [Compound 138] | 10 to 100 nM | < 10 nM |
| C[C@H](c1ccccc1)N(C)c1cc(-c2c(N)nn3cccnc23)ncn1 [Compound 20] | 100 to 500 nM | 10 to 100 nM |
| C[C@H](Nc1cc(-c2c(N)nn3cccnc23)ncn1)c1ccc(F)cc1Cl [Compound 80] | 10 to 100 nM | < 10 nM |
| C[C@H](Nc1cc(-c2cnn3cccnc23)nc(OCCCNCc2ccncc2)n1)c1ccc(F)cc1F [Compound 220] | 10 to 100 nM | < 10 nM |
